Series [1] concerns the target T1, cJun (Homo sapiens, UniProt P05412).
T1 construct: The same 60 amino acid cJun construct, encompassing the entire bZIP domain, was used for all experiments
Nature of the series: Isothermal titration calorimetry (ITC) with cJun. The format is binding. The following applies: 25 °C, average of two experiments ± one SD. An excerpt:
A selection of peptides from this work were investigated by isothermal titration calorimetry (ITC) to quantify the thermodynamic parameters of their interaction with target cJun (Figure 4 and S6; Table 2). The determined equilibrium binding constant (KD) values follow from the CD data above and can be rationalized in terms of the truncation or lactamization they represent. […] All interactions investigated were dominated by the enthalpic component, with a smaller unfavorable entropic contribution, other than for HW8/cJun, which is the weakest interaction. The unfavorable entropic component was largest for the HW30/cJun interaction and smallest for HW23/cJun. This indicates the introduction of lactams produces a more unfavorable entropic component, perhaps a surprising result as helix-inducing lactamization is typically considered to increase affinity through entropic pre-organization. However, the larger increase in the favorable enthalpic component produces an increase in binding affinity due to lactamization. This is likely to be caused by a combination of enhanced intermolecular contacts and ordering that are opposed by unfavorable desolvation effects.
Two-μL injections of antagonist peptide at 25–200 μM were injected into the cell containing cJun at 2.5–20 μM at 25°C. Microcal Control and Analysis software were used to record and analyze the heat change upon addition and fit the data to a one-site binding model to extract the enthalpy change of binding (ΔH) and the KD, from which the free energy change of binding (ΔG) and the entropy change of binding (ΔS) were calculated.[40] Control experiments involved the injection of the antagonist peptide sample into the cell containing ITC buffer alone to determine the heat of dilution, which was subtracted. Thermodynamic parameters are presented as an average of two independent experiments with errors given as one SD.

Series [2] can be described thus: Peptide fraction helicity by CD at 222 nm, peptide-only samples. Type of series: physicochemical. To be noted: CD signal at 222 nm of peptide-only samples; pH 7.4 phosphate/KF/TCEP buffer; duplicate experiments. How it is done:
(§1) The precise nature of the interaction between the cJun DBD and the rationally designed acidic domain of HW1 is unknown. HW1 was, therefore, iteratively truncated from the N terminus (HW2–6) to investigate the effect on cJun binding and cJun/TRE DNA antagonism (Table 1). Peptide fraction helicity (fH) was determined by quantifying the circular dichroism (CD) signal at 222 nm of peptide-only samples (Figure S1). Thermal denaturation experiments were then used to determine the melting temperature (Tm) of peptide-cJun heterodimers, which serves as an approximate measure of target engagement. CD was also used to investigate the functional activity of peptides in antagonizing the cJun/TRE DNA interaction. […] This provides a clear and direct measurement of the proportion of DNA bound to cJun. As antagonist peptide concentration was increased, the peak shifted to overlay with that of free TRE-DNA (Figure S4). For each peptide, the data were fit to a Hill equation to determine half-maximal inhibitory concentration (IC50) values, specific to these assay conditions, providing a clear comparative measure of antagonism. The same 60 amino acid cJun construct, encompassing the entire bZIP domain, was used for all experiments regardless of antagonist peptide length.

Series [3] deals with T1, cJun. Nature of the series: CD thermal denaturation of peptide-cJun heterodimers (Tm). Type of series: binding. How it is done:
as §1
Figure 2 Iterative N-terminal truncation of HingeW reduces cJun binding and antagonism (A) Thermal denaturation profiles for iteratively truncated peptide (5 μM)/cJun (5 μM) heterodimer samples. (B) CD antagonism data produced by monitoring the shift in a DNA specific peak to provide a direct readout of cJun-DNA binding. Peptides are added at the indicated concentrations to a pre-incubated mixture of cJun (20 μM) and TRE DNA (5 μM). Data points were averaged from triplicate experiments, and error bars indicate one SD. The data were fitted to a Hill equation to determine IC50 values. Some higher peptide concentration data points for HW6 and HW9 are not shown in this plot for clarity.

Another series can be described thus: Stability in human serum. To be noted: human serum (Merck), 75 μL of 600 μM peptide stock added to 1425 μL serum, 37 °C, 3-day endpoint; acetonitrile:water precipitation; LC-MS, sum of two largest charge-state peaks; average of three repeats.
The target in another series is T2, cJun/TRE DNA interaction (Homo sapiens, UniProt P05412).
T2 construct: The same 60 amino acid cJun construct, encompassing the entire bZIP domain, was used for all experiments
Nature of the series: CD antagonism of the cJun/TRE DNA interaction. Type of series: biochemical. How it is done:
as §1, with “For each peptide, the data were fit to a Hill equation to determine half-maximal inhibitory concentration (IC50) values, specific to these assay conditions, providing a clear comparative measure of antagonism. The same 60 amino acid cJun construct, encompassing the entire bZIP domain, was used for all experiments regardless of antagonist peptide length.” left out
Figure 2 Iterative N-terminal truncation of HingeW reduces cJun binding and antagonism (A) Thermal denaturation profiles for iteratively truncated peptide (5 μM)/cJun (5 μM) heterodimer samples. (B) CD antagonism data produced by monitoring the shift in a DNA specific peak to provide a direct readout of cJun-DNA binding. […]

The next series concerns TRE DNA. The series is described as follows: CD of TRE DNA with antagonist peptide alone (Figure S3). The format is binding. To be noted: TRE DNA (5 μM) + HingeW (50 μM), CD 260-320 nm. Here is the method:
as §1, with “length. […]” for “length.”
wavelength range, so the CD signal observed occurs due to the DNA structure, which is not perturbed upon addition of HingeW. […]

For series [4], the target named is cJun (60 amino acid construct encompassing the entire bZIP domain) (UniProt P05412).
The target in series [5] is T3, cJun (60 amino acid construct encompassing the entire bZIP domain) (UniProt P05412 252-315). The series is described as follows: cell-based or functional assay.
The nature of series [6]: CD thermal denaturation; peptide alone (no cJun); thermal denaturation curves compared as a sign of homodimerization. To be noted: other: CD thermal denaturation.
Series [7] has as its target T3, cJun (60 amino acid construct …). The series is described as follows: CD thermal denaturation; peptide (5 μM) with cJun (5 μM); ellipticity at 222 nm, 1°C to 90°C; 20 mM potassium phosphate, 150 mM potassium fluoride, 2 mM TCEP, pH 7.4; two-state fit gives the Tm of the peptide-cJun heterodimer; duplicate experiments. The following applies: both partners purified.
Setting [8] is: peptide 25-200 μM injected into cJun 2.5-20 μM, pH 7.4, one-site model.

Several values for one entry are separate records, joined by “and”; a condition that tells them apart may be missing. Identical values can stand only once. Positions of bridges follow the written chain, without caps; N, C: chain ends. Residues, ends and D or L forms follow the SMILES beside them.

T1 sequence (P05412 252-315 limits assumed): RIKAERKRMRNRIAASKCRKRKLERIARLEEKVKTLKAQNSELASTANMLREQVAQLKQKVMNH
T3 sequence (P05412 252-315): as the sequence (P05412 252-315 limits assumed) above
T2 sequence (P05412 252-315 limits assumed): as above
Sequence of cJun (60 amino acid construct encompassing the entire bZIP domain) (UniProt P05412) (P05412 252-315): as the sequence (P05412 252-315 limits assumed) above

Consider “Ac-EAEELVVEEDVLEEEIEQLEERNYALRKEIEDLQKQ-NH2 [HW8]”, for which the ΔH at cJun [1] (pH 7.4, one-site model) is -5.989 ± 0.813 kcal/mol. Also, the “Stoichiometry, n” value at cJun [1] (setting [8]) turned out to be 0.95 ± 0.09. The “fH, peptide fraction helicity” value in series [2] amounted to 37.3%. Further, the “Tm of peptide-cJun heterodimer” value at cJun [3] (CD ellipticity at 222 nm, 1-90 °C, peptide (5 μM)/cJun (5 μM), 20 mM potassium phosphate, 150 mM potassium fluoride, 2 mM TCEP pH 7.4, two-state fit, duplicate experiments, ± one SD) was 57.1 ± 0.9 °C. Moreover, in the series “Stability in human serum”, the “peptide remaining in human serum, peak intensity relative to starting value” is given as “fully degraded”.
With `CC[C@H](C)[C@H](NC(=O)[C@H](CCC(=O)O)NC(=O)[C@H](CCCCN)NC(=O)[C@H](CCCNC(=N)N)NC(=O)[C@H](CC(C)C)NC(=O)[C@H](C)NC(=O)[C@H](Cc1ccc(O)cc1)NC(=O)[C@H](CC(N)=O)NC(=O)[C@H](CCCNC(=N)N)NC(=O)[C@H](CCC(=O)O)NC(=O)[C@H](CCC(=O)O)NC(=O)[C@H](CC(C)C)NC(=O)[C@H](CCC(N)=O)NC(=O)[C@H](CCC(=O)O)NC(=O)[C@@H](NC(=O)[C@H](CCC(=O)O)NC(=O)[C@@H]1CC(=O)NCCCC[C@H](NC(=O)[C@H](CCC(=O)O)NC(=O)[C@H](CCC(=O)O)NC(=O)[C@@H](NC(=O)[C@@H](NC(=O)[C@H](CC(C)C)NC(=O)[C@H](CCC(=O)O)NC(=O)[C@H](CCC(=O)O)NC(=O)[C@H](C)NC(=O)[C@H](CCC(=O)O)NC(C)=O)C(C)C)C(C)C)C(=O)N[C@@H](C(C)C)C(=O)N[C@@H](CC(C)C)C(=O)N[C@@H](CCC(=O)O)C(=O)N1)[C@@H](C)CC)C(=O)N[C@H]1CCCCNC(=O)C[C@@H](C(=O)N[C@@H](CCC(N)=O)C(N)=O)NC(=O)[C@H](CCC(N)=O)NC(=O)[C@H](CC(C)C)NC(=O)[C@H](CC(=O)O)NC1=O` [HW30] (Ac-EAEELVVEEKVLEDEIEQLEERNYALRKEIKDLQDQ-NH2; lactam 10-14, 31-35), the “peptide remaining in human serum, peak intensity relative to starting value” in “Stability in human serum” is 56%.
Take “Ac-EAEELVVEEDVLEEEIEQLEEKNKALKDEIEDLY-NH2 [HW14]”: at cJun/TRE DNA interaction (peptide added to pre-incubated cJun (20 μM) and TRE DNA (5 μM), shift of DNA CD peak at ~281 nm, 30 min equilibration, pH 7.4, Hill fit, triplicate experiments, ± one SD, read-out: IC50 CD (antagonism of cJun/TRE DNA binding)), the IC50 was found to be 1560 µM. The “fH, peptide fraction helicity” value in [2] was determined as 30.1%.
On to “MASLEQRAEELARENEELEKEAEELVVEEDVLEEEIEQLEERNYALRKEIEDLQKQLEKLGAPHHHHHH [HW1]”, for which the ΔG on cJun [1] (pH 7.4, calculated from KD) was -13.45 ± 0.179 kcal/mol. In addition, the “-TΔS” value at cJun [1] (pH 7.4, calculated from ΔH and KD) was 17.55 ± 0.884 kcal/mol. Further, the “interaction with TRE DNA (in words)” value in the series with TRE DNA is “does not interact”. Moreover, the “fH, peptide fraction helicity” value in series [2] was ~27% and 27.2%. Besides, the “peptide remaining in human serum, peak intensity relative to starting value” in “Stability in human serum” is “fully degraded”.
With `CC[C@H](C)[C@H](NC(=O)[C@H](CCC(=O)O)NC(=O)[C@H](CCCCN)NC(=O)[C@H](CCCNC(=N)N)NC(=O)[C@H](CC(C)C)NC(=O)[C@H](C)NC(=O)[C@H](Cc1ccc(O)cc1)NC(=O)[C@H](CC(N)=O)NC(=O)[C@H](CCCNC(=N)N)NC(=O)[C@H](CCC(=O)O)NC(=O)[C@H](CCC(=O)O)NC(=O)[C@H](CC(C)C)NC(=O)[C@H](CCC(N)=O)NC(=O)[C@H](CCC(=O)O)NC(=O)[C@@H](NC(=O)[C@H](CCC(=O)O)NC(=O)[C@H](CCC(=O)O)NC(=O)[C@H](CCC(=O)O)NC(=O)[C@H](CC(C)C)NC(=O)[C@@H](NC(=O)[C@H](CC(=O)O)NC(=O)[C@H](CCC(=O)O)NC(=O)[C@H](CCC(=O)O)NC(=O)[C@@H](NC(=O)[C@@H](NC(=O)[C@H](CC(C)C)NC(=O)[C@H](CCC(=O)O)NC(=O)[C@H](CCC(=O)O)NC(=O)[C@H](C)NC(=O)[C@H](CCC(=O)O)NC(C)=O)C(C)C)C(C)C)C(C)C)[C@@H](C)CC)C(=O)N[C@H]1CCCCNC(=O)C[C@@H](C(=O)N[C@@H](CCC(N)=O)C(N)=O)NC(=O)[C@H](CCC(N)=O)NC(=O)[C@H](CC(C)C)NC(=O)[C@H](CC(=O)O)NC1=O` [HW29] (Ac-EAEELVVEEDVLEEEIEQLEERNYALRKEIKDLQDQ-NH2; lactam 31-35), at cJun [1] (setting [8]), the equilibrium dissociation constant (Kd) amounted to 0.0866 ± 0.017 µM. Besides, at cJun [3] (cyclized versus its linear (non-lactamized) counterpart), the “ΔTm of cJun heterodimer due to lactamization” value was about 9 °C. For the same molecule, the “ΔTm of cJun heterodimer relative to parent sequence HW8” value at cJun [3] (versus HW8, before the substitutions for K and D residues) is about 8 °C. Moreover, in the series “Stability in human serum”, the “peptide remaining in human serum, peak intensity relative to starting value” amounted to 31%.
For “MASLEQRAEELARENEELEKEAEELVVE-NH2 [HW7, acidic domain of HW1 alone (CΔ35)]”, the “antagonism of the ability of cJun to bind TRE DNA (in words)” value at cJun/TRE DNA interaction (CD antagonism assay) was “did not”. Besides, at cJun [3] (acidic domain alone), the “binding to cJun (in words)” value is listed as “not to bind”.
For Ac-EAEELVVEEDVLEEEIEQLEEKNKALKDEIEDLY-NH2 [HW14], the IC50 CD: peptide added to pre-incubated cJun (20 μM) and TRE DNA (5 μM); blocks cJun/TRE DNA binding in series [4] was found to be 1560 µM.

B1: HW5 (peptide)
peptide: Ac-LVVEEDVLEEEIEQLEERNYALRKEIEDLQKQLEKL-NH2
notes: truncation NΔ24 CΔ3 of HW1; source: synthetic peptide (Fmoc SPPS, RP-HPLC purified)
For B1, in series [5], the “IC50 CD: peptide added to pre-incubated cJun (20 μM) and TRE DNA (5 μM); blocks cJun/TRE DNA binding” value is 78.2 µM. Also, in series [6], the “Tm of the peptide alone” value was “HW5 displayed a Tm of 41 °C”. Moreover, the “Tm of the peptide-cJun heterodimer” value in series [7] came out at 62.8 °C.

(Values after article PMC9582194, “The effect of helix-inducing constraints and downsizing upon a transcription block survival-derived functional cJun antagonist” (Cell Reports. Physical Science, 2022).)
